{"source": "patent US9273043B2", "about": "“TRPV1 antagonists including dihydroxy substituent and uses thereof” (Purdue Pharma L.P., priority 2011, dated 2016)", "tested_on": "MIA-induced osteoarthritis pain", "assay": "MIA-induced osteoarthritis model, grip force test", "assay_type": "in vivo, rat", "conditions": "rat MIA, grip force", "description": "Osteoarthritis Pain: To assess the actions of a Compound of Formula (I) for the treatment or prevention of osteoarthritis pain, the rat monosodium iodo-acetate (MIA, i.e., sodium 2-iodoacetate) induced osteoarthritis model was used. Intra-articular injection of MIA causes joint degeneration characterized by osteolysis and swelling, with displacement of the patella, and reductions in bone mineral content and bone mineral density (Pomonis et al., “Development and pharmacological characterization of a rat model of osteoarthritis pain,” Pain 114: 339-346 (2005)). Under isoflurane anaesthesia, an intra-articular injection of 2 mg of MIA (Sigma-Aldrich) in 50 μl of saline was administered through the infrapatellar ligament of the knee joint of the right hind leg of the male, 6 week old Crl:CD(SD) rats. Control rats received an intra-articular injection of 50 μl of saline into the knee joint of the right hind leg. The left knee joint of all rats was untreated. Two weeks after MIA injection, rats were assessed for osteoarthritis pain related-behaviors immediately prior to and 1, 3, 5, 7, and 24 hours after oral drug-in-vehicle administration (for day 1) by determining their weight-bearing capabilities, via the weight bearing difference (WBD) test, and their gripping capabilities, via the grip force test, each as described below. Thus, in the assessment for osteoarthritis pain relief through gripping capability determinations, the 24 hour time point was the start of the next day when drug-in-vehicle was again orally administered (24 hours after the prior administration) for certain dosages. On days 2, 3, and 4, gripping capability response was determined 3 and 24 hours thereafter.\nThe grip force (GF) of the hind legs was assessed using a Animal Grip Strength System (San Diego Instruments, San Diego, Calif.). Rats were gently restrained and allowed to grasp the wire mesh strain gauge with their hind legs. The animals were then moved in a rostral-caudal direction until they let go of the gauge. The force (in g) at which the rat let go was recorded. Each animal was tested twice at approximately 3-10 minute intervals at each time point and the average of the two readings was used for the GF in data analysis.\nGrip force, normalized to account for the weight of each animal, was expressed as “GF/B”, i.e., the ratio of GF to body weight, where GF is the grip force in grams and B is the body weight of the animal in kg. The “% GFR”, i.e., the percentage reversal of the (normalized) grip force impediment occurring post-MIA injection, was determined for each dosage at each time point using the following formula:\n[formula] where (GF/B)Drug is the GF/B determined at each post-oral-administration time-point for each dose of each substance administered to MIA-injected animals, (GF/B)Vehicle is the GF/B determined at each post-oral-administration time-point for the vehicle control administered to MIA-injected animals, and (GF/B)Control Rat is the GF/B determined for control rats (saline-injected animals receiving orally-administered vehicle only). With the exception of the controls (i.e., celecoxib, vehicle) where the student's t-test was used, Dunnett's test was conducted for the % GFR. In either instance, values with p <0.05 were considered to be statistically significant.", "note": "Marks after values point to notes of the source that are not given here.", "data": [{"smiles": "CC1CN(c2ncc(C(O)CO)cc2F)CCN1C(=O)Nc1nc2cc(F)ccc2s1.O=C(O)C=CC(=O)O", "note": "(stereo not drawn)", "values": [{"measurement": "% GFR [mean]", "setting": "oral 0.3 mg/kg, 1 h (day 1)", "result": 12.8, "unit": "%"}, {"measurement": "% GFR [mean]", "setting": "oral 0.3 mg/kg, 3 h (day 1)", "result": "21.1* %"}, {"measurement": "% GFR [mean]", "setting": "oral 0.3 mg/kg, 3 h (day 1), listed as product prepared with Compound A155(a) and fumaric acid", "result": 21.1, "unit": "%"}, {"measurement": "% GFR [mean]", "setting": "oral 0.3 mg/kg, 5 h (day 1)", "result": "17.3* %"}, {"measurement": "% GFR [mean]", "setting": "oral 0.3 mg/kg, 7 h (day 1)", "result": 3.7, "unit": "%"}, {"measurement": "% GFR [mean]", "setting": "oral 0.3 mg/kg, 24 h after day 1 dose (0 hrs day 2)", "result": 4.0, "unit": "%"}, {"measurement": "% GFR [mean]", "setting": "oral 1 mg/kg once daily, 3 h (day 2)", "result": "43.1** %"}, {"measurement": "% GFR [mean]", "setting": "oral 1 mg/kg once daily, 3 h (day 2), listed as product prepared with Compound A155(a) and fumaric acid", "result": 43.1, "unit": "%"}, {"measurement": "% GFR [mean]", "setting": "oral 1 mg/kg once daily, 3 h (day 3)", "result": "38.0** %"}, {"measurement": "% GFR [mean]", "setting": "oral 1 mg/kg once daily, 3 h (day 3), listed as product prepared with Compound A155(a) and fumaric acid", "result": 38.0, "unit": "%"}, {"measurement": "% GFR [mean]", "setting": "oral 1 mg/kg once daily, 3 h (day 4)", "result": "40.1** %"}, {"measurement": "% GFR [mean]", "setting": "oral 1 mg/kg once daily, 3 h (day 4), listed as product prepared with Compound A155(a) and fumaric acid", "result": 40.1, "unit": "%"}, {"measurement": "% GFR [mean]", "setting": "oral 1 mg/kg once daily, 24 h after day 2 dose (0 hrs day 3)", "result": "15.4** %"}, {"measurement": "% GFR [mean]", "setting": "oral 1 mg/kg once daily, 24 h after day 3 dose (0 hrs day 4)", "result": "26.1** %"}, {"measurement": "% GFR [mean]", "setting": "oral 1 mg/kg once daily, 24 h after day 4 dose (0 hrs day 5)", "result": "26.4** %"}, {"measurement": "% GFR [mean]", "setting": "oral 1 mg/kg, 1 h (day 1)", "result": "29.7** %"}, {"measurement": "% GFR [mean]", "setting": "oral 1 mg/kg, 3 h (day 1)", "result": "45.2** %"}, {"measurement": "% GFR [mean]", "setting": "oral 1 mg/kg, 3 h (day 1), listed as product prepared with Compound A155(a) and fumaric acid", "result": 45.2, "unit": "%"}, {"measurement": "% GFR [mean]", "setting": "oral 1 mg/kg, 5 h (day 1)", "result": "37.6** %"}, {"measurement": "% GFR [mean]", "setting": "oral 1 mg/kg, 7 h (day 1)", "result": "16.5* %"}, {"measurement": "% GFR [mean]", "setting": "oral 1 mg/kg, 24 h after day 1 dose (0 hrs day 2)", "result": 3.1, "unit": "%"}, {"measurement": "% GFR [mean]", "setting": "oral 3 mg/kg once daily, 3 h (day 2)", "result": "50.5** %"}, {"measurement": "% GFR [mean]", "setting": "oral 3 mg/kg once daily, 3 h (day 2), listed as product prepared with Compound A155(a) and fumaric acid", "result": 50.5, "unit": "%"}, {"measurement": "% GFR [mean]", "setting": "oral 3 mg/kg once daily, 3 h (day 3)", "result": "45.0** %"}, {"measurement": "% GFR [mean]", "setting": "oral 3 mg/kg once daily, 3 h (day 3), listed as product prepared with Compound A155(a) and fumaric acid", "result": 45.0, "unit": "%"}, {"measurement": "% GFR [mean]", "setting": "oral 3 mg/kg once daily, 3 h (day 4)", "result": "45.6** %"}, {"measurement": "% GFR [mean]", "setting": "oral 3 mg/kg once daily, 3 h (day 4), listed as product prepared with Compound A155(a) and fumaric acid", "result": 45.6, "unit": "%"}, {"measurement": "% GFR [mean]", "setting": "oral 3 mg/kg once daily, 24 h after day 2 dose (0 hrs day 3)", "result": "22.0** %"}, {"measurement": "% GFR [mean]", "setting": "oral 3 mg/kg once daily, 24 h after day 3 dose (0 hrs day 4)", "result": "32.0** %"}, {"measurement": "% GFR [mean]", "setting": "oral 3 mg/kg once daily, 24 h after day 4 dose (0 hrs day 5)", "result": "28.9** %"}, {"measurement": "% GFR [mean]", "setting": "oral 3 mg/kg, 1 h (day 1)", "result": "36.5** %"}, {"measurement": "% GFR [mean]", "setting": "oral 3 mg/kg, 3 h (day 1)", "result": "53.6** %"}, {"measurement": "% GFR [mean]", "setting": "oral 3 mg/kg, 3 h (day 1), listed as product prepared with Compound A155(a) and fumaric acid", "result": 53.6, "unit": "%"}, {"measurement": "% GFR [mean]", "setting": "oral 3 mg/kg, 5 h (day 1)", "result": "44.3** %"}, {"measurement": "% GFR [mean]", "setting": "oral 3 mg/kg, 7 h (day 1)", "result": "19.9** %"}, {"measurement": "% GFR [mean]", "setting": "oral 3 mg/kg, 24 h after day 1 dose (0 hrs day 2)", "result": "−2.2", "unit": "%"}, {"measurement": "% GFR [mean]", "setting": "oral 10 mg/kg once daily, 3 h (day 2)", "result": "57.5** %"}, {"measurement": "% GFR [mean]", "setting": "oral 10 mg/kg once daily, 3 h (day 2), listed as product prepared with Compound A155(a) and fumaric acid", "result": 57.5, "unit": "%"}, {"measurement": "% GFR [mean]", "setting": "oral 10 mg/kg once daily, 3 h (day 3)", "result": "51.6** %"}, {"measurement": "% GFR [mean]", "setting": "oral 10 mg/kg once daily, 3 h (day 3), listed as product prepared with Compound A155(a) and fumaric acid", "result": 51.6, "unit": "%"}, {"measurement": "% GFR [mean]", "setting": "oral 10 mg/kg once daily, 3 h (day 4)", "result": "52.2** %"}, {"measurement": "% GFR [mean]", "setting": "oral 10 mg/kg once daily, 3 h (day 4), listed as product prepared with Compound A155(a) and fumaric acid", "result": 52.2, "unit": "%"}, {"measurement": "% GFR [mean]", "setting": "oral 10 mg/kg once daily, 24 h after day 2 dose (0 hrs day 3)", "result": "32.7** %"}, {"measurement": "% GFR [mean]", "setting": "oral 10 mg/kg once daily, 24 h after day 3 dose (0 hrs day 4)", "result": "33.4** %"}, {"measurement": "% GFR [mean]", "setting": "oral 10 mg/kg once daily, 24 h after day 4 dose (0 hrs day 5)", "result": "32.0** %"}, {"measurement": "% GFR [mean]", "setting": "oral 10 mg/kg, 1 h (day 1)", "result": "35.9** %"}, {"measurement": "% GFR [mean]", "setting": "oral 10 mg/kg, 3 h (day 1)", "result": "55.6** %"}, {"measurement": "% GFR [mean]", "setting": "oral 10 mg/kg, 3 h (day 1), listed as product prepared with Compound A155(a) and fumaric acid", "result": 55.6, "unit": "%"}, {"measurement": "% GFR [mean]", "setting": "oral 10 mg/kg, 5 h (day 1)", "result": "45.9** %"}, {"measurement": "% GFR [mean]", "setting": "oral 10 mg/kg, 7 h (day 1)", "result": "22.8** %"}, {"measurement": "% GFR [mean]", "setting": "oral 10 mg/kg, 24 h after day 1 dose (0 hrs day 2)", "result": "−5.7", "unit": "%"}, {"measurement": "% GFR [mean]", "setting": "oral 20 mg/kg, 1 h (day 1)", "result": "49.0** %"}, {"measurement": "% GFR [mean]", "setting": "oral 20 mg/kg, 3 h (day 1)", "result": "65.1** %"}, {"measurement": "% GFR [mean]", "setting": "oral 20 mg/kg, 3 h (day 1), listed as product prepared with Compound A155(a) and fumaric acid", "result": 65.1, "unit": "%"}, {"measurement": "% GFR [mean]", "setting": "oral 20 mg/kg, 5 h (day 1)", "result": "50.3** %"}, {"measurement": "% GFR [mean]", "setting": "oral 20 mg/kg, 7 h (day 1)", "result": "29.3** %"}, {"measurement": "% GFR [mean]", "setting": "oral 20 mg/kg, 24 h after day 1 dose (0 hrs day 2)", "result": "−1.3", "unit": "%"}]}]}
